Measurements reported in ChEMBL document CHEMBL3045907, “Discovery and development of pyridalyl” (J Pestic Sci, 2012).

Assays:
[1] = Toxicity in Cyprinidae (carp fish); assay type: ADME, organism-based; details: in vivo
[2] = Solubility of the compound in water; assay type: physicochemical; details: buffer
[3] = Acute toxicity in Rattus norvegicus (rat) compound administered intradermally; assay type: organism-based; details: in vivo
[4] = Acute toxicity in po dosed Rattus norvegicus (rat); assay type: organism-based; details: in vivo
[5] = Octanol-water partition co-efficient, log P of the compound at 20 degC; assay type: physicochemical
[6] = Acute toxicity in Rattus norvegicus (rat) compound administered through inhalation; assay type: organism-based; details: in vivo, inhaled or intranasal

`FC(F)(F)c1ccc(OCCCOc2c(Cl)cc(OCC=C(Cl)Cl)cc2Cl)nc1` [PYRIDALYL] showed an LC50 [1] greater than 10 µg/mL, a solubility [2] of 0.15 ppb and an LD50 [3] greater than 2000 mg/kg. It also gave an LD50 [4] greater than 5000 mg/kg, a logP [5] of 8.1 and an LC50 [6] greater than 2.01 µg/mL.
